Test results taken from patent US20200277278A1, “Deuterium Atom-Substituted Indole Formamide Derivative, Preparation Method Therefor, and Medical Applications Thereof” (Jiangsu Hengrui Medicine Co., Ltd., priority 2017, published 2020).
Where two headings read alike, the source gives them in different places.

How the values were obtained:
[1] = system: IL-17A; experiment: IL-17A enzyme-linked immune quantitative assay in cytostim-activated human PBMC; type: cell-based; settings: 72 h, 3 days
Description: Frozen human peripheral blood mononuclear cells (PBMC) were rapidly resuscitated in pre-warmed lymphocyte culture medium, and centrifuged at 1000 rpm for 10 min. The cell culture supernatant was removed. The cells were gently suspended in TexMACS medium and counted. The T cell activation reagent cytostim (10 μl/ml) was added in proportion to the cell suspension. Then, the cells were seeded in a 96-well cell culture plate at a density of 1×10^5 peripheral blood mononuclear cells/well. The test compounds were diluted in gradient with TexMACS medium, and added respectively to the test wells, with 2-3 parallel wells per group. A negative control well containing only cells without cytostim was provided to obtain the background reading. The cell culture plate was placed in a incubator at 5% carbon dioxide, 37° C. to incubate for 3 days. The cell culture supernatant was collected 3 days after drug treatment, and centrifuged to remove the suspension. Then, IL-17A in the supernatant was quantified with IL-17A enzyme-linked immunosorbent kit. EC50 values of the test compounds were calculated with GraphPad Prism 6.0.

[2] = Pharmacokinetics assay in mice; type: in vivo; settings: female, mouse, po, C57 mice, intragastric, 2 mg/kg; for Vd/F: read-out: Apparent distribution volume Vz/F; for AUC: read-out: Area under curve AUC; for CL/F: read-out: Clearance CLz/F; for half-life: read-out: Half-life T½ (converted); for Cmax: read-out: Plasma concentration Cmax; for MRT: read-out: Residence time MRT
Description: Mice were used as test animals. […] The pharmacokinetic behavior of the compounds of the present invention was studied and evaluated in mice. A group of eighteen C57 mice (female, equally divided into two groups) were purchased from Shanghai Jiesijie Laboratory Animal Co., LTD, with Certificate No.: SCXK (Shanghai) 2013-0006. A certain amount of the test compound was weighed, and added with 5% by volume of DMSO, 5% by volume of tween 80 and 90% by volume of normal saline to prepare a 0.1 mg/mL colorless, clear and transparent solution. […] The samples were stored in heparinized tubes, and centrifuged for 10 minutes at 3500 rpm to separate the blood plasma. The plasma samples were stored at −20° C. The content of the test compound in the plasma of mice after intragastrical administration of the test compound at different concentrations was determined: 25 μL of mouse plasma at each time after administration was taken, added with 80 μL of the internal standard solution of camptothecin (100 ng/mL) and 200 μL of acetonitrile, vortex-mixed for 5 minutes, and centrifuged for 10 minutes (3600 rpm). 1 μL of the supernatant was taken from the plasma samples for LC/MS/MS analysis.

[3] = biological target: T1, RORγ LBD (Homo sapiens, UniProt P51449); experiment: LanthaScreen TR-FRET RORγ co-activation system, effect on in vitro activity of RORγ; type: biochemical
T1 construct: RORγ LBD (AB Vector); purchased AB Vector
T1 sequence (P51449 269-508 limits assumed): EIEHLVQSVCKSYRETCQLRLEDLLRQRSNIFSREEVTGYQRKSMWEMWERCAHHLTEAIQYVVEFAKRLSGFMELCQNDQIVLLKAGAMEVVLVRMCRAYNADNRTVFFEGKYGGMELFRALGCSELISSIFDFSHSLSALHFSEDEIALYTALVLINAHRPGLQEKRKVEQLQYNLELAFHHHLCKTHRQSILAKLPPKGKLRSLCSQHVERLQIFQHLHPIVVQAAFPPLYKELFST
Description: A complete buffer D (complete TR-FRET Coregulator) (Life Technologies) was formulated first, containing a final concentration of 5 mM DTT. The final concentration of DMSO was 2%. The test compound was serially diluted to 2× final concentration in the complete buffer D containing 2% of DMSO, and the maximum dose was 60 μm. The test compound was added to the test wells of a 384-well plate (PerkinElmer) in 10 μl/well. Two parallel control wells were set up for each test compound at the same concentration. 4×RORγ LBD (AB Vector) was formulated. RORγ LBD was diluted with the complete buffer D to a concentration of 1 ng/μL, and added to the test wells of the 384-well plate in 5 µl/well. The negative control well was 5 μL of complete buffer D without RORγ LBD. A mixed solution comprising 0.6 μM of fluorescein-D22 (4×) and 8 nM of terbium (Tb)-labeled anti-GST antibody (4×) (Life Technologies) was formulated with the complete buffer D, and 5 μL of the mixed solution was added to the 384-well plate. The total reaction system was 20 μL. The 384-well plate was gently shaken on a shaker, and incubated at room temperature in the dark for 2-4 hours.
Fluorescence readings were determined with Tecan Infinite M1000. The logarithmic curve of the ratio of the emission wavelength of 520 nm/495 nm to the concentration of the compound was plotted by GraphPad Prism 6.0 software. EC50 value of the test compound was calculated.

[4] = system: MC38 colorectal tumor; experiment: Efficacy in isotype MC38 colorectal tumor mice model; type: in vivo, C57BL/6 mice
Description: Female C57BL/6 mice (20-25 gram, 7-9 weeks old) were used in the experiment. In vivo antitumor activity of the compound of Example 1 administered alone or the compound of Example 1 administered in combination with anti-mouse PD-1 antibody was evaluated by detecting the growth of isotype MC38 colorectal tumor in inbred C57BL/6 mice. 500,000 (5×10^5) MC38 cells were implanted subcutaneously in the right abdomen of each mouse. When the tumor grew to 40-80 mm^3 (on Day 6), the mice were grouped randomly into the above four groups. In Group III and IV, the mice were administered the compound of Example 1 (0.5 mg/kg) once a day for 20 consecutive days. During the treatment experiment in Group II and IV, the anti-mouse PD-1 (CD279) antibody (BioXcell) (5 mg/kg) was intraperitoneally injected (i.p.) to the mice bearing MC38 tumor on Day 6, 9, 12 and 15, respectively. […]
The tumor volume was measured with a caliper in three dimensions, and then calculated according to the following formula: tumor volume (mm^3)=1×w×h×0.5236, wherein 1 represents the length of the tumor, w represents the width of the tumor, and h represents the height of the tumor, in millimeters. […]

SMILES | EC50 [1] [µM] | Emax [1] [%] | EC50 [3] [µM] | Emax [3] [%] | further results
[2H]C([2H])([2H])C([2H])([2H])S(=O)(=O)c1ccc([C@H](CO)NC(=O)c2ccc3c(c2)cc(Cc2ccc(Cl)cc2C(F)(F)F)n3CCF)cc1 (single isomer, unassigned) [Example 6] | 0.037 | 100 |  |  | Vd/F ([2]; in vivo): 0.575 L/kg; AUC ([2]; in vivo): 31600 ng·h/mL; CL/F ([2]; in vivo): 1.06 mL/min/kg; half-life ([2]; in vivo): 6.29 h; Cmax ([2]; in vivo): 2730 ng/mL; MRT ([2]; in vivo): 9.13 h
[2H]C([2H])(NC(=O)c1ccc2c(c1)cc(Cc1ccc(Cl)cc1C(F)(F)F)n2CCF)c1ccc(S(=O)(=O)CC)cc1 [Example 3, 2-[[4-Chloro-2-(trifluoromethyl)phenyl]methyl]-N-[dideutero-(4-ethylsulfonylphenyl)methyl]-1-(2-fluoroethyl)indole-5-carboxamide] | 0.103 | 102 | 0.017 | 98 | 
[2H]C([2H])(F)Cn1c(Cc2ccc(Cl)cc2C(F)(F)F)cc2cc(C(=O)N[C@@H](CO)c3ccc(S(=O)(=O)CC)cn3)ccc21 [Example 13, 2-[[4-Chloro-2-(trifluoromethyl)phenyl]methyl]-1-(2,2-dideutero-2-fluoro-ethyl)-N-[(1R)-1-(5-ethylsulfonyl-2-pyridinyl)-2-hydroxy-ethyl]indole-5-carboxamide] | 0.022 | 88 | 0.009 | 77 | 
[2H]C([2H])(c1cc2cc(C(=O)N[C@@H](CO)c3ccc(S(=O)(=O)CC)cc3)ccc2n1C1CC1)n1nccc1C(F)(F)F [Example 2, 1-Cyclopropyl-2-[dideutero-[5-(trifluoromethyl)pyrazol-1-yl]methyl]-N-[(1R)-1-(4-ethylsulfonylphenyl)-2-hydroxy-ethyl]indole-5-carboxamide] |  |  | 0.016 | 89 | 
[2H]C([2H])(F)Cn1c(Cc2ccc(Cl)cc2C(F)(F)F)cc2cc(C(=O)N[C@@H](CO)c3ccc(S(=O)(=O)CC)cc3)ccc21 (single isomer, unassigned) [Example 1] | 0.022 | 88 |  |  | Vd/F ([2]; plasma): 0.648 L/kg; AUC ([2]; plasma): 40400 ng·h/mL; CL/F ([2]; plasma): 0.82 mL/min/kg; half-life ([2]; plasma): 9.08 h; Cmax ([2]; plasma): 3710 ng/mL; MRT ([2]; plasma): 12 h; Tumor growth inhibition rate TGI ([4]; 0.5 mg/kg oral in combination with anti-mouse PD-1 monoclonal antibody 5 mg/kg i.p.): 65.5%; Tumor growth inhibition rate TGI ([4]; administered alone, 0.5 mg/kg oral, once a day for 20 days): 22.5%
[2H]C([2H])(O)Cn1c(Cc2ccc(Cl)cc2C(F)(F)F)cc2cc(C(=O)N[C@@H](CO)c3ccc(S(=O)(=O)CC)cc3)ccc21 [Example 5, 2-[[4-Chloro-2-(trifluoromethyl)phenyl]methyl]-1-(2,2-dideutero-2-hydroxy-ethyl)-N-[(1R)-1-(4-ethylsulfonylphenyl)-2-hydroxy-ethyl]indole-5-carboxamide] | 0.032 | 82 | 0.009 | 73 | 
[2H]C([2H])(C)n1c(Cc2ccc(Cl)cc2C(F)(F)F)cc2cc(C(=O)N[C@@H](CO)c3ccc(S(=O)(=O)CC)cc3)ccc21 [Example 11, 2-[[4-Chloro-2-(trifluoromethyl)phenyl]methyl]-1-(1,1-dideuteroethyl)-N-[(1R)-1-(4-ethylsulfonylphenyl)-2-hydroxyethyl]indole-5-carboxamide] |  |  | 0.021 | 84 | 
[2H]C([2H])(NC(=O)c1ccc2c(c1)cc(Cc1ccccc1C(F)(F)F)n2C1CC1)c1ccc(S(=O)(=O)CC)cc1 [Example 4, 1-Cyclopropyl-N-[dideutero-(4-ethylsulfonylphenyl)methyl]-2-[[2-(trifluoromethyl)phenyl]methyl]indole-5-carboxamide] | 0.02 | 79 | 0.005 | 98 | 
[2H]C([2H])([2H])OC[C@H](NC(=O)c1ccc2c(c1)cc(Cc1ccc(Cl)cc1C(F)(F)F)n2CCF)c1ccc(S(=O)(=O)CC)cc1 [Example 8, 2-[[4-Chloro-2-(trifluoromethyl)phenyl]methyl]-N-[(1R)-1-(4-ethylsulfonylphenyl)-2-(trideuteromethoxy)ethyl]-1-(2-fluoroethyl)indole-5-carboxamide] |  |  | 0.034 | 85 | 
